Where two headings read alike, the source gives them in different places. Marks after values point to notes of the source that are not given here.

One assay relates to root knot nematode (RKN). In words: RKN greenhouse soil assay on cucumber plants. The assay is classed as in vivo, Meloidogyne incognita. An excerpt:
Cucumber seeds are planted in a sandy soil mixture in two inch square plastic pots. When the cotyledons are fully opened and just as the first leaf begins to emerge, usually 7 days after planting, chemistry for the 7 day treatment is applied. One week later the chemistry for the 0 day treatment is applied. Separate plants are used for each application. The plants are generally in the 1-2 leaf stage now. At least four hours after the chemistry application the pots are inoculated with root knot nematode (RKN) eggs. Plants are rated for galling 14 days after the egg inoculation.
One milligram of chemistry per four pots is equal to one kilogram per hectare of chemical. A standard test uses four replications. For rates above 2 kg/ha, the desired amount of chemical is weighed into a 30 ml vial (example: 8 kg/ha rate=8 mg chemical in 30 ml vial). The chemical is dissolved in 2 ml of appropriate solvent, generally acetone. For rates below 2 kg/ha, 2 milligrams of chemistry is weighed into the vial and dissolved in 2 ml of the solvent. The appropriate amount of chemical concentrate is then pipetted into a separate 30 ml vial and solvent is added to bring the volume to 2 ml (example 0.5 kg/ha=0.5 ml of concentrate+1.5 ml solvent). Each dissolved concentrate is then brought to a total of 20 milliliters using 0.05% Triton X 100 surfactant solution.
Pots to be treated are moist but not saturated. To each of four pots, five milliliters of the appropriate chemical solution is pipetted to the media surface making sure to avoid contact with the base of the plant. Immediately following chemical application, using a mist nozzle, the pot surface is wetted sufficiently to saturate the pot watering in the chemistry. The chemical application is done in the morning.
Nematode eggs, either SCN or RKN, are added to distilled water to create a concentration of 1000 vermiform eggs […]. At least four hours after chemical treatment the eggs are applied to the treated pots plus non-treated check plants. A small hole about 1 cm deep is punched into the pot surface. One milliliter of the nematode egg slurry is pipetted into the hole. Immediately afterwards the hole is gently covered. Watering of the test plants is then restricted to only water as needed to prevent wilt for a period of 24 hours. After the 24 hour restricted watering, normal sub-irrigation watering is done for the duration of the test.

The test system of another assay is Meloidogyne incognita. In words: M. incognita miniaturized greenhouse assay on cucumber seedlings (root galling). The assay is classed as in vivo. On the set-up: key to 1 ppm gall ratings / 1 ppm gall rating: mean of 3 gall ratings: 0=0-5%, 1=6-20%, 2=21-50%, 3=51-100% root galled. Conditions: for 8 ppm gall ratings: average of triplicate gall rating, scale 0-3 (% root mass galled). The protocol: The test compound is dissolved in an acetone solution and added to water. A sprouted cucumber seedling is placed into a vial with dry sand and the water-chemical solution is added immediately. Twenty four hours later Meloidogyne incognita eggs are added to the vials and 10 to 12 days later the roots are evaluated for nematode galling.
Cucumber seeds are sprouted for 3 days in moist paper towels. Acceptable sprouts should be 3 to 4 cm long with several lateral roots just emerging. Stock solutions of chemistry are prepared in a mixture of acetone and Triton X100 (412 mg in 500 mL) to a final concentration of 5 mg/mL. The chemical stock solution is then added to 10 mL deionized water plus 0.015% Triton X100 and mixed thoroughly. This is enough to test each condition in triplicate. Ten mL dry sand is added to each vial. At this time the solubility of the chemistry is visually determined and recorded as either ppt (large precipitates) or cloudy (fine precipitates). Seedlings are planted by tilting the vial and laying the seedling in the correct orientation so that the cotyledons are just above the sand and then tilting back to cover the radicles with sand. 3.3 ml water/chemical mix is added to each vial and the vials placed in racks under fluorescent light banks. The vials are inoculated two days after planting by adding 500 vermiform M. incognita eggs to each vial in 50 uL of deionized or spring water. The vials are then kept under the fluorescent lamps at ambient room temperature and watered as needed with 1 mL deionized water, usually twice during duration of test. Harvest of the cucumber plants is done 10 to 12 days after inoculation by washing sand off the roots. A root gall rating and visual phytotoxicity rating is assigned using the following scales: Gall rating scale (Gall: % root mass galled): 0=0-5%; 1=6-20%; 2=21-50%; and 3=51-100%. The average of the triplicate gall rating is then calculated: green=0.00-0.33 (no galls); yellow=0.67-1.33 (mild galling); orange=1.67-2.33 (moderate galling); red=2.67-3.00 (severe galling). Visual phytotoxicity scale is also assigned (Vis. tox; visual reduction in root mass compared to the control): rs1=mild stunting; rs2=moderate stunting; rs3=severe stunting.

The test system of another assay is root knot nematode. As to the kind of experiment: Pre-plant incorporated (PPI) greenhouse test of root knot nematode on cucumber plants. It counts as in vivo, Meloidogyne incognita. Conditions: Meloidogyne incognita, read-out: percent control (galling reduction) relative to the control blank treatment; for pest or weed control at 4000 g/ha: 4 kg/ha rate; for pest or weed control at 8000 g/ha: 8 ka/ha rate; for pest or weed control at 2000 g/ha: 2 kg/ha rate. From the text:
The PPI test examines the effect of pre-incorporation of compounds in soil and longer aging to simulate in furrow methods of nematicide application in the field. The PPI test exposes compounds to a higher volume of soil and drying which can result in more severe soil binding. Compounds are also aged for longer periods which can lead to more extensive biotic and abiotic degradation further limiting activity.
The chemically treated soil (sandy soil mix) for all treatment days (e.g., 7 days, 14 days, 21 days) treatments is potted into their appropriate pots. On the same day the 7 day treatment pots are seeded. One week later eggs are applied and 14 days after egg application the test is harvested. The 14 day treatments are planted 7 days after the first planting. The 14 day planting and 7 day inoculation happen on the same day. One week later the 14 day treatments are inoculated with eggs. These are harvested 14 days after the inoculation. The 21 day treatments are planted 14 days after the first planting. The 14 day inoculation and 21 day planting are done on the same day. One week later the 21 day plants are inoculated with eggs. The 7 day treatment is harvested the same day as the 21 day inoculation. Fourteen days after inoculation the 21 day plants are harvested.
For each compound a stock is prepared using 4 mg material in 4 ml of acetone. The soil is mixed by placing 80 ml of field soil and 320 ml of sand in a plastic bag and mixing well. The formulation for treatment is done by adding 2.13 ml (8 kg/ha rate), 1.06 ml (4 kg/ha rate) or 0.53 ml (2 kg/ha rate) to a vial and raising it with 10 ml in 0.05%×100. Soil is then treated by adding the entire 10 ml to the 400 ml of mix in the bag. The treated soil is immediately mixed well in the sealed bag to distribute the compound evenly. Approximately 95 ml is used to fill each 2-inch square pot up to the top with some soil compression and flattening. For each compound and for the control treatments 4 pots are filled. All pots are watered until moist but with no run-out through the bottom.
The PPI test simulates 8, 4 and 2 kg/ha rates incorporated 15 cm deep in the field and is equivalent to the 2, 1 and 0.5 kg/ha drench application rates in the standard 2-inch pot cucumber greenhouse assay.

The mark [1] stands for this setting: Acetone 1 mg/kg, standard 10% acetone in 0.05% Triton X 100 formulation.
The mark [2] stands for this setting: Radex 1 mg/kg, emulsifiable concentrate, 6.25% active ingredient by weight.
Where [3] appears, read: 168 h, seven day pre-plant incorporated.
Where [4] appears, read: fourteen day pre-plant incorporated, test a.
[5] abbreviates: 0 day treatment, 0.25 kg/ha, test a.

In the case of `Brc1ccc(-c2noc(-c3cccs3)n2)cc1` [compound 1846], the “percent control (galling reduction) relative to the appropriate control blank treatment” value in the assay on root knot nematode (RKN) (setting [1]) amounted to 88%; in the assay on root knot nematode (RKN) (setting [2]), 86%. For the same compound, the “1 ppm gall ratings” value worked out at 1.33 in the assay on Meloidogyne incognita (Table 1B test a) and 0.67 with Meloidogyne incognita (Table 1B test b). Besides, in the assay on Meloidogyne incognita, the “8 ppm gall ratings” value is given as 0 (0=0-5%).

For the compound `FC(F)(F)c1ccc(-c2noc(-c3cccs3)n2)cc1` [compound 5213], in the assay with root knot nematode (setting [3]), the pest or weed control at 4000 g/ha was 85% and the pest or weed control at 8000 g/ha turned out to be 98%. Further, in the assay with Meloidogyne incognita, the “8 ppm gall ratings” value is on record as 0.33.

`Brc1ccc(-c2noc(-c3ccco3)n2)cc1` [compound 5467]: the “percent control (galling reduction) relative to the appropriate control blank treatment” value in the assay on root knot nematode (RKN) (setting [1]) turned out to be 73%. In addition, in the assay with root knot nematode (RKN) (setting [2]), the “percent control (galling reduction) relative to the appropriate control blank treatment” value is listed as 88%. In the assay with root knot nematode (setting [4]), the pest or weed control at 2000 g/ha turned out to be 71%, the pest or weed control at 4000 g/ha was 76% and the pest or weed control at 8000 g/ha was found to be 100%. Further, the “1 ppm gall ratings” value with Meloidogyne incognita (Table 1B test a) is 1.67. Moreover, the “1 ppm gall ratings” value in the assay with Meloidogyne incognita (Table 1B test b) turned out to be 1.33. Further, the “8 ppm gall ratings” value with Meloidogyne incognita is given as 0 (0=0-5%).

As for `Fc1ccc(-c2noc(-c3cccs3)n2)cc1` [compound 5479], in the assay on root knot nematode (RKN) (setting [1]), the “percent control (galling reduction) relative to the appropriate control blank treatment” value is listed as 91%. The “percent control (galling reduction) relative to the appropriate control blank treatment” value in the assay with root knot nematode (RKN) (setting [2]) stood at 96%. Besides, in the assay with root knot nematode (setting [4]), the pest or weed control at 2000 g/ha came out at 71%, the pest or weed control at 4000 g/ha amounted to 89% and the pest or weed control at 8000 g/ha came to 100%. In the assay on Meloidogyne incognita (Table 1B test a), the “1 ppm gall ratings” value is 1 (1=6-20%). In addition, the “1 ppm gall ratings” value in the assay with Meloidogyne incognita (Table 1B test b) is given as 0.67. Also, the “8 ppm gall ratings” value with Meloidogyne incognita is reported as 0 (0=0-5%).

Consider `Clc1ccc(-c2noc(-c3cccs3)n2)cc1` [compound 5527], for which, in the assay on root knot nematode (RKN) (setting [1]), the “percent control (galling reduction) relative to the appropriate control blank treatment” value came to 91%. Further, the “percent control (galling reduction) relative to the appropriate control blank treatment” value in the assay with root knot nematode (RKN) (setting [2]) came out at 80%. In the assay with root knot nematode (setting [4]), the pest or weed control at 2000 g/ha turned out to be 57%, the pest or weed control at 4000 g/ha is 90% and the pest or weed control at 8000 g/ha stood at 96%. In addition, the “1 ppm gall ratings” value in the assay on Meloidogyne incognita (Table 1B test a) is 1.67. In addition, in the assay on Meloidogyne incognita (Table 1B test b), the “1 ppm gall ratings” value is recorded as 1 (1=6-20%). Moreover, the “8 ppm gall ratings” value with Meloidogyne incognita amounted to 0.67.

For the compound `Cc1cc(Br)ccc1-c1noc(-c2ccco2)n1` [compound 5825], the “percent control (galling reduction) relative to the control blank treatment” value in the assay with root knot nematode (RKN) (0 day treatment, 0.05 kg/ha, test a) is 53^a percent; in the assay on root knot nematode (RKN) (0 day treatment, 0.1 kg/ha, test a), 50^a percent; with root knot nematode (RKN) (setting [5]), 89%; in the assay on root knot nematode (RKN) (0 day treatment, 0.25 kg/ha, test b) it was 84%; with root knot nematode (RKN) (0 day treatment, 1 kg/ha, test b), “— 94^b percent”; in the assay on root knot nematode (RKN) (7 day treatment, 1 kg/ha, test b), “— 97^b percent”. For the same compound, the “percent control (galling reduction) relative to the appropriate control blank treatment” value with root knot nematode (RKN) (setting [1]) and in the assay with root knot nematode (RKN) (setting [2]) was 96% in each case. The pest or weed control at 2000 g/ha in the assay with root knot nematode (setting [4]) was determined as 69%. The pest or weed control at 4000 g/ha in the assay on root knot nematode (setting [4]) was determined as 98%. Also, in the assay with root knot nematode (setting [4]), the pest or weed control at 8000 g/ha was 96%. Also, the “1 ppm gall ratings” value was 0 (0=0-5%) with Meloidogyne incognita (Table 1B test a) and 0.33 with Meloidogyne incognita (Table 1B test b).

With `Fc1cc(Cl)ccc1-c1noc(-c2cccs2)n1` [compound 5860], the “percent control (galling reduction) relative to the control blank treatment” value with root knot nematode (RKN) (setting [5]) is recorded as 47^a percent; with root knot nematode (RKN) (0 day treatment, 1 kg/ha, test a) it was 85^a percent; in the assay with root knot nematode (RKN) (7 day treatment, 1 kg/ha, test a) it was 86^a percent.

In the case of `Clc1cc(Br)ccc1-c1nsc(-c2ccco2)n1` [compound 5961], the “percent control (galling reduction) relative to the control blank treatment” value with root knot nematode (RKN) (0 day treatment, 0.05 kg/ha, test c) is given as “— — 73^c percent”; in the assay on root knot nematode (RKN) (0 day treatment, 0.1 kg/ha, test c) it was “— — 88^c percent”; with root knot nematode (RKN) (0 day treatment, 0.25 kg/ha, test c), “— — 81^c percent”.
